This is an account of results in US5849782A, “Methods of inhibiting neurodegenerative diseases” (The General Hospital Corporation, priority 1996, dated 1998).

One assay concerns Male Swiss-Webster mice. As to the kind of experiment: MPTP-induced neurotoxicity in mice: striatal dopamine, DOPAC, HVA. In kind it is in vivo, mouse. Conditions: at 1 week. How it is done:
Methods. Male Swiss-Webster mice (30-35 g:Taconic Farms, Germantown, N.Y., U.S.A.) were treated with either normal saline or MPTP hydrochloride (Research Biochemicals, Natick, Mass., U.S.A.). MPTP was administered in 0.1 ml of water at a dose of 10 mg/kg i.p. at 2-h intervals for six doses or 20 mg/kg i.p. at 2-h intervals for four doses. 7-NI (Cookson Chemical Ltd., Southhampton, U.K.) was dissolved in peanut oil (Sigma, St. Louis, Mo., U.S.A.) at a concentration of 5 mg/ml. Mice received doses of 25 or 50 mg/kg per subcutaneous injection. MPTP-treated animals were treated with peanut oil or 7-NI 12 h before the first, at every MPTP injection, and every 8 h for 48 h after MPTP injections. Eleven to 12 animals were used in each group. Animals were killed at 1 week. The two striata were rapidly dissected and placed in chilled 0.1M perchloric acid. Tissue was subsequently sonicated, and aliquots were taken for protein quantification using a fluorometric assay (Beal et al., 1990) J. Neurochem. 55:1327-1339).
Dopamine, 3,4-dihydroxyphenlyacetic acid (DOPAC), homovanillic acid (HVA), p-tyrosine, and 3-nitrotyrosine were quantified by HPLC with 16-electrode electrochemical detection (Beal et al. (1990) supra) and are expressed as ng/mg protein (mean±SEM) (FIG. 1). 3-Nitrotyrosine data are expressed as ratios of 3-nitrotyrosine to p-tyrosine to normalize for differing brain concentrations of tyrosine. The statistical significance of differences was determined via one-way ANOVA followed by Fisher PLSD post hoc test to compare group means. All animal use procedures were in strict accordance with the NIH Guide for the Care and Use of Laboratory Animals and were approved by the local Animal Care Committee.

For assay [1], the system named is Male Sprague-Dawley rats. The experiment in a line: Striatal lesions produced by intrastriatal malonate (TTC staining). In kind it is in vivo, rat. The conditions noted are these: 7-NI 25 and 50 mg/kg i.p. 0.5 h before malonate. As for the experimental part:
Stereotaxic Lesion Technique. Male Sprague-Dawley rats (Charles River, Cambridge, Mass.) weighing 300-325 g were anesthetized with pentobarbital (50 mg/kg i.p.) and positioned in a David Kopf stereotaxic instrument with the incisor bar set at 3.3 mm below the intermural line. Malonate, NMDA, KA, and AMPA were dissolved in 0.1M phosphate-buffered saline (pH, 7.4). Intrastriatal injections were made with a 10 μl Hamilton syringe fitted with a 30 gauge blunt-tipped needle into the left striatum at the coordinates 0.5 mm anterior bregma, 2.6 mm lateral to the midline and 5 mm ventral to the dura. Injection volumes were 1 μl (3 μmol malonate). […]
Quantification of Lesion Volume. […] (Bederson et al. (1986) Stroke 17:1304-1308.) The lesioned area (noted by pale staining) was measured on the posterior surface of each section using an Apple Macintosh.COPYRGT. based image analysis system (Sony color video camera, Software: ColorSnap.COPYRGT. (Computer Friends Inc., Portland, Oreg.) and IPLab Spectrum.COPYRGT. (Signal Analytics, Vienna, Va.)). The lesions were evaluated by an experienced histologist, who verified the reliability of the TTC measurements in animals injected with malonate on adjacent sections stained with either TTC or Nissl stain (Schulz et al. (1995) J. Neurochem 64:in press).

In assay [2] the test system is Male Sprague-Dawley rats. The experiment in a line: Lactate and lesion volume by magnetic resonance after intrastriatal malonate. Format: in vivo, rat. As for the experimental part: Localized Lactate Measurements by Magnetic Resonance Spectroscopy. The effects on lactate production of intrastriatal injections of 3 μmol malonate and the influence of pretreatment with 7-NI on these lactate levels were assessed in vivo using magnetic resonance imaging (Brouillet et al. (1993) J. Neurochem. 60:356-359). Male Sprague-Dawley rats weighing 275-325 g received either i.p. injections of peanut oil (vehicle) or 50 mg/kg 7-NI (n=5-6 per group). […] Rats were imaged under halothane/N2 O/O2 anesthesia on a 4.7 Tesla GE Omega CSI Imager using a 30 mm bird cage coil at 1.5-2 h after striatal malonate injections. […] Lesion volumes were measured using a T2 -weighted sequence (TR/TE 3200/80 ms) with slice thickness of 2.5 mm, and a field of view of 40 mm. Lesion volumes were measured using a criterion for abnormal tissue of being 2 standard deviations above the mean signal intensity in the contralateral unaffected striatum. Lactate was measured using double phase encoding three dimensional (x,y,ω) water suppressed chemical shift imaging sequence with an inversion pulse for lipid suppression described earlier (Jenkins et al. (1993) Neurology 43:2689-2695). […] Lactate concentrations were measured in the lesioned striatum by delineating the striatum in the water image and overlaying the contours on the lactate images. […]

Molecules are shown by their SMILES.

For the compound `O=[N+]([O-])c1cccc2cn[nH]c12` [7-NI, 7-nitroindazole], the “striatal dopamine, % of control values” in the assay with Male Swiss-Webster mice (MPTP 10 mg/kg i.p. x6 at 2-h intervals, 7-NI 50 mg/kg s.c.) is on record as 92 % of control values. Besides, the “protection against MPTP-induced depletions of dopamine, HVA and DOPAC” value in the assay on Male Swiss-Webster mice (MPTP 20 mg/kg i.p. x4, 7-NI 50 mg/kg) is on record as “almost complete protection”. Further, the “striatal lesion produced by 3 μmol malonate” value in the assay with Male Sprague-Dawley rats [1] was “significantly and dose dependently attenuated”. Also, the “malonate-induced increase in striatal lactate concentrations (MR spectroscopy)” value in the assay with Male Sprague-Dawley rats [2] (7-NI 50 mg/kg i.p. 0.5 h before striatal lesion, 1.5 h after malonate) is “significantly attenuated”. Also, the “lesion volume by T2-weighted MR imaging” value with Male Sprague-Dawley rats [2] (2 h after striatal malonate, n=6, vehicle 84.01±16.2, p<0.01) amounted to 34.9±27.7 mm^3.
